Results published in patent US6368852B1, “Peptide capable of inducing immune response to human gastric cancer and agent for preventing or treating human gastric cancer, containing the peptide” (Ajinomoto Co., Inc., priority 1995, dated 2002).
Where no end group is shown, it is not given here.

Legend:
[1] = test system: Tc-HST-2 cells with HST-2 cells expressing HLA-A31 antigen as target cells; assay: CTL assay using a TNF-releasing method (Wehi164/MTT); assay type: cell-based, human; details: peptide final concentration 10 μM, 1 μM or 0.1 μM; HST-2 target cells; target cells to CTL 1:100; 12 hours
Procedure: That is, in the TNF-releasing method, the HLA-A31-positive HST-2 or KG-1 cell is mixed with the peptide of the present invention, and the mixture is incubated at 37° C. for 3 hours. Then, Tc-HST-2 cells are added thereto, and the resulting mixture is further incubated for 12 hours. The activity of any TNF released in the supernatant is measured to detect the CTL inducibility.
The TNF activity can be measured by the method described in Immunogenetics, vol. 35, p. 145 (1992).
That is, TNF-sensitive Wehi164 cells are mixed with a test sample, and the mixture is incubated for 24 hours. Then, an MTT [3-(4,5-dimethylthiazol-2-yl)-2,5-diphenyl tetrazolium bromide] solution is added to the culture, and the resulting mixture is further incubated for 3 hours. After any formazan converted within mitochondria is dissolved in acid propanol, the amount thereof is measured in terms of an absorbance at OD570 to detect the TNF activity.
That is, 1×10^4 HST-2 cells expressing HLA-A31 antigen were suspended as target cells in 100 μl of the solution, and 5 μl of each of the above-mentioned four synthetic peptides were added thereto such that the final concentration reached 10 μM, 1 μM or 0.1 μM. The mixture was further incubated under the same conditions for 3 hours to bind the HLA-bound peptide to the HLA molecule. Subsequently, Tc-HST-2 cells (1×10^6 cells/ml) were added thereto in an amount of 100 μl, and the resulting mixture was further incubated for 12 hours under the same conditions.
After 12 hours of incubation, 30 μl of the supernatant formed was collected, and the TNF activity released in the supernatant was measured to detect the CTL inducibility. The TNF activity was measured by the following method.
That is, 7×10^4 Wehi164 cells which are TNF-sensitive cells were suspended in 120 μl of the solution, and 30 μl of the above-obtained supernatant were added thereto. The mixture was incubated for 24 hours. […] Then, the absorbance was measured at a wavelength of 570 nm to measure the TNF activity.

[2] = test system: Tc-HST-2 cells with HST-2 or KG-1 cells expressing HLA-A31 antigen as target cells; assay: CTL inducibility by the 51Cr-releasing method (specific cytotoxicity of Tc-HST-2); assay type: cell-based, human; details: HLA-bound peptide from HST-2 separated by reversed-phase HPLC; target cells to CTL 1:100; 12 hours incubation
Procedure: That is, HLA-A31-positive HST-2 or KG-1 cells are radio-labeled with sodium chromate containing ^51Cr, and are then mixed with the HLA-bound peptide separated through reversed phase chromatography. The mixture is incubated at 37° C. for 3 hours, and Tc-HST-2 is then added thereto. The resulting mixture is further incubated for 12 hours. The CTL inducibility can be detected by measuring the radio-activity of ^51Cr released in the supernatant.
The CTL inducibility of the HPLC elution fractions against Tc-HST-2 cells was measured as follows. […]
Subsequently, Tc-HST-2 cells (2.5×10^5 cells/ml) were added thereto in an amount of 100 μl, and the mixture was incubated under the same conditions for 12 hours. After 12 hours of incubation, 100 μl of the supernatant formed were collected, and the radioactivity of ^51Cr released in this supernatant was measured using a γ-counter to measure the CTL activity.
The specific cytotoxicity was calculated using the following formula. […]
wherein the minimum release value indicates a measured value of a well filled with target cells alone and a value of ^51Cr naturally released from target cells, and the maximum release value indicates a release value when the cells are destroyed by adding a surfactant, 1% Triton x-100, to target cells.

With YSWMDISCW [Peptide 1-9] the “CTL inducibility of Tc-HST-2 (TNF activity released in the supernatant)” value [1] was “CTL inducibility of TC-HST-2 was identified”.
For “Peptide 1-7: peptide containing 7 amino acids starting from the N-terminus of Synthetic Peptide 1 (SEQ ID NO: 4) (YSWMDIS)”, the “CTL inducibility of Tc-HST-2 (TNF activity released in the supernatant)” value [1] was “no CTL inducibility”.
For YSWMDISC [Peptide 1-8], the “CTL inducibility of Tc-HST-2 (TNF activity released in the supernatant)” value [1] was “no CTL inducibility”.
With “YSWMDISCWI [Peptide 1, Tyr Ser Trp Met Asp Ile Ser cys Trp Ile]” the “CTL inducibility of Tc-HST-2 (specific cytotoxicity, 51Cr release)” value [2] was “exhibiting the CTL inducibility”.
